# Literature values as cited in US20250057810A1, “AQUEOUS MELATONIN FORMULATION” (AGB-Pharma AB, priority 2021, published 2025).
# Details: in vivo
structure (smiles),measurement,value
"COc1ccc2[nH]cc(CCNC(C)=O)c2c1 [melatonin, N-acetyl-5-methoxytryptamine]",blood levels returning to normal daytime levels after administration,6 to 8 h
